Measured values from patent US20170304329A1 (THE UNIVERSITY OF KANSAS, priority 2014, published 2017).

Experiments:
Format in all cases: cell-based, human
253JBV cells = experiment: Cell proliferation, hexosaminidase assay; details: for IC50: 48 h
Description: (§1) To determine the effect of CPX on bladder cancer cell proliferation in T24 (MIBC) and 253-JBV (NMIBC) cells, 5,000 cells per well were seeded on to 96-well plates and grown overnight. The cells were then treated with increasing doses of CPX in RPMI media containing 10% FBS. Analysis of cell proliferation after the treatment period was estimated by the hexosaminidase assay. Briefly, the medium was removed and hexosaminidase substrate solution in citrate buffer pH 5 (7.5 mM), p-nitrophenol-N-acetyl-beta-D-glucosaminidase (Sigma Aldrich) was added at 75 μL per well. The plate was incubated at 37° C. in 100% humidity for 30 minutes. The reaction was stopped with 112.5 μL of 50 mM glycine containing 5 mM of EDTA (pH 10.4). The absorbance was measured at 405 nm. Experiments were conducted at n=6, and then repeated at least three times. The data were analyzed as percent of control, where the control wells were treated with equivalent amounts of DMSO alone. For IC50 calculations, a plot between the drug concentration and hexosaminidase activity was generated and the data was fitted either linearly or exponentially. The best fit was used for further processing of data.
(§2) We determined and compared the effect of CPX with CPX-POM and CPX-glucuronide in vitro by performing proliferation assay. To determine the effect of CPX, CPX-POM and CPX-glucuronide on bladder cancer cell proliferation in T24 (MIBC) and 253-JBV (NMIBC) cells, 5,000 cells per well were seeded on to 96-well plates and grown overnight. The cells were then treated with increasing doses of CPX, CPX-POM and CPX-glucuronide in RPMI media containing 10% FBS. Analysis of cell proliferation after the treatment period was estimated by the hexosaminidase assay. Briefly, the medium was removed and hexosaminidase substrate solution in citrate buffer pH 5 (7.5 mM), p-nitrophenol-N-acetyl-beta-D-glucosaminidase (Sigma Aldrich) was added at 75 μL per well. The plate was incubated at 37° C. in 100% humidity for 30 minutes. The reaction was stopped with 112.5 μL of 50 mM glycine containing 5 mM of EDTA (pH 10.4). The absorbance was measured at 405 nm.
(§3) Experiments were conducted at n=6, and then repeated at least three times. The data were analyzed as percent of control, where the control wells were treated with equivalent amounts of DMSO alone. For IC50 so calculations, a plot between the drug concentration and hexosaminidase activity was generated and the data was fitted either linearly or exponentially.

T24 cells = experiment: Cell proliferation, hexosaminidase assay
Description: as §1, §2, §3

[1] = tested on: Notch, Wnt and Hedgehog signaling pathways in T24 cells; experiment: RT-PCR array of signal transduction pathways
Description: We performed an RT-PCR array analyses as a preliminary study to identify the pathways affected by ciclopirox (CPX). Expression analysis was performed using RT2 Profiler™ PCR Arrays (SA Biosciences, Frederick, Md., USA) per the manufacturer's instructions. The Human signal transduction pathway finder polymerase chain reaction (PCR) array was used (cat. no. PAHS-014ZA). Briefly, Total RNA isolated from T24 cells using TRIZOL reagent was reverse transcribed with Superscript II reverse transcriptase in the presence of random hexanucleotide primers (all from Invitrogen, Carlsbad, Calif.). Complementary DNA (2 μg) was mixed with 1,275 μL RT2 SYBR Green qPCR Master Mix (PA-010; SA Biosciences) to make up a total volume of 2,550 μL. Each well received 25 μL of this mix. qPCR was performed on an Bio-Rad CFX machine following detection protocols recommended by SA Biosciences. Changes in mRNA expression were expressed as fold change relative to control.

[2] = tested on: 253JBV bladder cancer cell spheroids; experiment: Spheroid (bladdosphere) assay; details: I generation, 7 days
Description: (§4) The spheroid assay, which is sometimes also called the 3D assay was developed as a method to propagate epithelial stem cells in vitro, and is now a standard surrogate reporter for stem cell activity. The assay (in this case called bladdosphere assay) is based on the hypothesis that the unique, undifferentiated cells present in bladder cancers will survive in suspension culture, while the other cells will die by anoikis. Therefore, we characterized the effect of ciclopirox (CPX) in bladdosphere assay. Here, cancer cells are plated in ultra-low binding plates and the resulting spheroids are believed to represent growth from stem cells.
(§5) For formation of spheroids, cells were cultured in RPMI 1640 (Mediatech) supplemented with 20 ng/mL bFGF (Invitrogen) 10 mL per 500 mL of 50×B27 supplement (Invitrogen) EGF 20 ng/mL (Invitrogen) and antibiotic and antimycotic solution. Cells were seeded at low densities (5000 cells/mL) in 6-well low adhesion plates. The cells were treated with increasing concentrations of CPX (0.5×, 1×, and 2× of IC50 calculated from cell proliferation assay—2 μM for 253JBV and 4 μM for T24). After 7 days the spheroids were photographed (I generation). Control spheroids and spheroids treated with CPX (1×IC50) were collected, trypsinized and re-plated for the secondary spheroid growth (II generation), followed by tertiary spheroid development (III generation).

[3] = tested on: T24 bladder cancer cell spheroids; experiment: Spheroid (bladdosphere) assay; details: I generation, 7 days
Description: as §4, §5

T24 bladder cancer cells = experiment: Annexin V-FITC apoptosis labeling; details: 4 μM, up to 48 h
Description: It was determined that CPX induces apoptosis. We next determined whether the compounds could induce cell death through the apoptotic pathway. For this we treated T24 bladder cancer cells with CPX (4 μM) and labeled the cells with FITC conjugated Annexin V to detect apoptotic cells. […] Cells were incubated with the indicated dose of compound for up to 48 h.

IC50 (T24 cells; Homo sapiens, T-24, 48 h, 48 h): 4 µM
SMILES: Cc1cc(C2CCCCC2)n(O)c(=O)c1 [CPX, 6-cyclohexyl-1-hydroxy-4-methylpyridin-2(1H)-one]
IC50 (253JBV cells): 3 µM
IC50 (253JBV cells; Homo sapiens): 2 µM
effect on cell proliferation (253JBV cells; up to 72 h): significant dose- and time-dependent decrease in cell proliferation
effect on cell proliferation (T24 cells; up to 72 h): significant dose- and time-dependent decrease in cell proliferation
mRNA expression of CSC signaling pathway genes [1]: significantly reduced the mRNA expression of Notch and its downstream signaling proteins
spheroid formation [2]: significant decrease in size and number of spheroids
spheroid formation [3]: significant decrease in size and number of spheroids
cell death (Annexin V-FITC labeled cells) (T24 bladder cancer cells): significant increase in cell death
